Reference: patent US20240173440A1, “HIGH PURITY COPPER RADIOPHARMACEUTICAL COMPOSITIONS AND DIAGNOSTIC AND THERAPEUTIC USES THEREOF” (Nuclidium AG, priority 2022, published 2024)
Blank lines part the entries; values can stand above or below the compound they belong to.

Tests used:
[1] = target: hFAP (Homo sapiens (Human), UniProt Q12884); assay: Saturation binding on isolated HEK-293.hFAP cell membranes; set-up: Bmax: unit not given here; settings: 37° C.
Description: The cells were homogenized using Ultra-Turrax, and the homogenized suspension was centrifuged at 500×g for 10 min at 4° C. The supernatant was collected in centrifuge tubes (Beckman Coulter Inc., Brea, CA, USA). This procedure was then repeated 5 times. The collected supernatant was centrifuged in an ultra-centrifuge (Beckman) at 4° C. for 55 min at 49,000×g. Then, the pellet was re-suspended in 10 mM ice-cold HEPES buffer (pH 7.5), aliquoted, and stored at −80° C. The protein concentration of those membrane suspensions was determined by the Bradford method, BSA as the standard.
Each assay tube contained 170 μL of binding buffer (20 mM HEPES, pH 7.4, containing 4 mM μgCl2, 0.2% BSA, 20 μg/L bacitracin, 20 μg/L PMSF and 200,000 KIU/L aprotinin). The incubation was initiated by adding 30 μL of radioligand solution at 10 times the final concentration and 100 μL of cell membrane suspension to yield 10 μg of protein per well. For the determination of the non-specific binding, 140 μL of the above binding buffer was added along with 30 μL of FAPI-46 to obtain (0.1 mM). Bound fractions were plotted versus the corresponding radioligand concentration at equilibrium. The dissociation constant (KD) and maximal binding capacity (Bmax) values were calculated using GraphPad Software Inc., Prism 7, San Diego, CA, USA (Table 33 and FIG. 21).

[2] = tested on: HT-1080.hFAP and HT-1080.wt xenografts; assay: Quantitative biodistribution in HT-1080.hFAP and HT-1080.wt xenografted mice; type: in vivo; settings: for Biodistribution HT-1080.wt: FAP-negative tumor; for Biodistribution HT-1080.hFAP: FAP-positive tumor
Description: The tumors were allowed to grow to an average volume of 100-200 mm3.
Biodistribution Studies: The xenografted mice were randomized (n=5 per group) and injected intravenously via the tail vein with the ^61Cu-labeled radioligands (100 μL, […], 0.8-1MBq). Mice were euthanized 1h and 4h pi. by CO2 asphyxiation. Organs of interest and blood were collected, rinsed of excess blood, blotted dry, weighed, and counted in a […]. The samples were counted against a suitably diluted aliquot of the injected solution as the standard and the results are expressed as the percentage of the injected activity per gram of tissue (0% I.A./g)+SD.

[3] = tested on: HT-1080.hFAP cells; assay: In vitro cellular uptake (cell surface and internalized fractions) in HT-1080.hFAP cells; type: cell-based, human
Description: (§1) The cellular uptake was studied in vitro using intact cells seeded in 6-well plates overnight. On the day of the experiment, the cells were washed and incubated with each of the exemplified [^61Cu]Cu-radiotracer at different time points, either alone or in the presence of a blocking agent to distinguish between specific and non-specific uptake. At each investigated time point, the medium containing the unbound (free) radiotracer was removed, followed by two washing steps with ice-cold phosphate-buffered saline. The cells were then treated 2×5 min with ice-cold glycine solution (0.05 M, pH 2.8) to detach the cell surface-bound radiotracer (acid released). Afterwards, the cells containing the internalized radiotracer were detached with 1 M NaOH at 37° C. and collected for measurement. The amount of specific cell surface-bound and internalized radiotracer is expressed as percentage of the total applied activity, after subtracting the non-specific values.
as §1, with “^61Cu-labeled conjugate” for “of the exemplified [^61Cu]Cu-radiotracer”
The cells were then preconditioned in 360 μL of assay medium (MEM medium without supplements) at 37° C. for 60 min. 40 μL of a 2 nM solution of ^61Cu-labeled radioligand was added and the cells were incubated at 37° C. The cellular uptake was interrupted at different time points (15 min, 1 hour and 4 hours), by washing twice with ice-cold PBS. Cell surface-bound radioligand was obtained by washing cells twice with ice-cold glycine buffer (pH 2.8), followed by a collection of the internalized fraction with 1 M NaOH. The activity in each fraction was measured in a γ-counter (Cobra II).

[4] = Remaining PET activity in the mouse body 4h p.i.; type: in vivo; settings: mice
Description: PET/CT Imaging: Mice bearing FAP-positive and FAP-negative xenografts were injected intravenously with ^61Cu-labeled radioligands of the present disclosure or ^61Cu-NODAGA-FAPI-46 (100 μL/[…]/6-12 MBq). […] The mice were euthanized by CO2 at 4 hours p.i., and static PET scans were acquired for 30 min.
Remaining PET activity in the mouse body 4h p.i. prior to the 4h scan was determined (Table 36).

[5] = 1 h p.i., HT-1080.hFAP and HT-1080.wt xenografts
[6] = 4 h p.i., HT-1080.hFAP and HT-1080.wt xenografts
[7] = HT-1080.hFAP and HT-1080.wt xenografts
[8] = 15 min, HT-1080.hFAP cells, specific uptake (minus HT-1080.wt)
[9] = 240 min, HT-1080.hFAP cells, specific uptake (minus HT-1080.wt)

Chain of hFAP (Q12884 whole entry): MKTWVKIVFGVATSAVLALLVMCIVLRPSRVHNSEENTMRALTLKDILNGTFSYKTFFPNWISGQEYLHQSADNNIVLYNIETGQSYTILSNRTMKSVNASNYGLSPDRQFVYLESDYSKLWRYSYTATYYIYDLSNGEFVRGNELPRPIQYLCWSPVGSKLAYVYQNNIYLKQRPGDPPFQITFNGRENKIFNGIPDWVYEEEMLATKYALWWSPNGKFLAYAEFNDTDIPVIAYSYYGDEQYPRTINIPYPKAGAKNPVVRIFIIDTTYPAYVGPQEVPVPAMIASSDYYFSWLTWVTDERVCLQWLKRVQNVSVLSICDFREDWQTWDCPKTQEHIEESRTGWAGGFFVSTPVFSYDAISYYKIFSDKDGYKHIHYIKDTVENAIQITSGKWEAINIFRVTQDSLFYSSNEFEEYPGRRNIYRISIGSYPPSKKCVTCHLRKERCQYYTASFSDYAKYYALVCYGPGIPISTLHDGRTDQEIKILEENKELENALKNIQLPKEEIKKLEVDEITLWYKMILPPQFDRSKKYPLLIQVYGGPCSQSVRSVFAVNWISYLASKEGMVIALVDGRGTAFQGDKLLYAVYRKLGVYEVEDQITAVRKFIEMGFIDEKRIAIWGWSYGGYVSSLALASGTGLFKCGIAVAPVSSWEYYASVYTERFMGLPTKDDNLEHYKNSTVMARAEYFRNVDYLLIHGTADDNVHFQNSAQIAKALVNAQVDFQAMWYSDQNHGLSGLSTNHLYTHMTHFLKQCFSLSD

Bmax [1]: 9.0-10.3 | Biodistribution Adrenal [2, 5]: 2.2 ± 0.1 % IA/g | Biodistribution Blood [2, 5]: 2.6 ± 0.1 % IA/g | Biodistribution Femur [2, 5]: 6.5 ± 0.4 % IA/g | Biodistribution HT1080.hFAP (FAP-positive tumor) [2, 5]: 8.4 ± 1.4 % IA/g | Biodistribution HT1080.wt (FAP-negative tumor) [2, 5]: 3.1 ± 0.0 % IA/g | Biodistribution Heart [2, 5]: 1.1 ± 0.0 % IA/g | Biodistribution Intestine [2, 5]: 1.0 ± 0.4 % IA/g | Biodistribution Kidney [2, 5]: 1.5 ± 0.1 % IA/g | Biodistribution Liver [2, 5]: 0.9 ± 0.0 % IA/g | Biodistribution Lung [2, 5]: 1.5 ± 0. % IA/g | Biodistribution Muscle [2, 5]: 1.7 ± 0.1 % IA/g | Biodistribution Pancreas [2, 5]: 2.0 ± 0.2 % IA/g | Biodistribution Spleen [2, 5]: 0.7 ± 0.1 % IA/g | Biodistribution Stomach [2, 5]: 1.0 ± 0.1 % IA/g | Biodistribution Adrenal [2, 6]: 2.0 ± 0.2 % IA/g | Biodistribution Blood [2, 6]: 1.5 ± 0.1 % IA/g | Biodistribution Femur [2, 6]: 4.6 ± 0.4 % IA/g | Biodistribution HT1080.hFAP (FAP-positive tumor) [2, 6]: 7.7 ± 0.4 % IA/g | Biodistribution HT1080.wt (FAP-negative tumor) [2, 6]: 2.5 ± 0.2 % IA/g | Biodistribution Heart [2, 6]: 0.7 ± 0.1 % IA/g | Biodistribution Intestine [2, 6]: 0.6 ± 0.2 % IA/g | Biodistribution Kidney [2, 6]: 1.0 ± 0.1 % IA/g | Biodistribution Liver [2, 6]: 0.8 ± 0.2 % IA/g | Biodistribution Lung [2, 6]: 1.0 ± 0.1 % IA/g | Biodistribution Muscle [2, 6]: 1.4 ± 0.2 % IA/g | Biodistribution Pancreas [2, 6]: 1.6 ± 0.1 % IA/g | Biodistribution Spleen [2, 6]: 0.5 ± 0.1 % IA/g | Biodistribution Stomach [2, 6]: 0.6 ± 0.1 % IA/g | retention in the body (remaining PET activity) [4]: highest retention in the body
Compound: CN(CCCN1CCN(C(=O)CCC(C(=O)O)N2CCN3CCN(CC2)CC(=O)[O][61Cu][O]C(=O)C3)CC1)c1ccc2nccc(C(=O)NCC(=O)N3CC(F)(F)C[C@H]3C#N)c2c1 (stereo partly shown) [[^61Cu]Cu-NODAGA-FAPI-46]
accumulation in tumor and target-positive tissues [2, 7]: high accumulation in FAP-positive (HT-1080.hFAP) tumor and murine-FAP-positive tissues | Cell surface fraction [3, 8]: 0.9 ± 0.3 % of the applied activity | Internalized fraction [3, 9]: 50.0 ± 6.0 % of the applied activity | Cell surface fraction ([3]; Time Point 15 min, 0.2 nM): 0.9 ± 0.3 percentage of the total applied activity | Internalized fraction ([3]; Time Point 240 min, 0.2 nM): 50.0 ± 6.0 percentage of the total applied activity

Bmax [1]: 9.1-9.8 | Biodistribution Heart ([2]; 1 hour p.i.): 0.6 ± 0.0 % I.A./g | Biodistribution Intestine ([2]; 1 hour p.i.): 0.5 ± 0.2 % I.A./g | Biodistribution Liver ([2]; 1 hour p.i.): 0.6 ± 0.1 % I.A./g | Biodistribution Lung ([2]; 1 hour p.i.): 0.9 ± 0.1 % I.A./g | Biodistribution Muscle ([2]; 1 hour p.i.): 0.8 ± 0.2 % I.A./g | Biodistribution Spleen ([2]; 1 hour p.i.): 0.4 ± 0.0 % I.A./g | Biodistribution Stomach ([2]; 1 hour p.i.): 0.5 ± 0.0 % I.A./g | Biodistribution Adrenal [2, 5]: 1.1 ± 0.2 % IA/g | Biodistribution Blood [2, 5]: 1.4 ± 0.1 % IA/g | Biodistribution Femur [2, 5]: 3.2 ± 0.8 % IA/g | Biodistribution HT1080.hFAP (FAP-positive tumor) [2, 5]: 7.4 ± 1.6 % IA/g | Biodistribution HT1080.wt (FAP-negative tumor) [2, 5]: 1.7 ± 0.2 % IA/g | Biodistribution Heart [2, 5]: 0.6 ± 0.0 % IA/g | Biodistribution Intestine [2, 5]: 0.5 ± 0.2 % IA/g | Biodistribution Kidney [2, 5]: 1.8 ± 0.2 % IA/g | Biodistribution Liver [2, 5]: 0.6 ± 0.1 % IA/g | Biodistribution Lung [2, 5]: 0.9 ± 0.1 % IA/g | Biodistribution Muscle [2, 5]: 0.8 ± 0.2 % IA/g | Biodistribution Pancreas [2, 5]: 1.1 ± 0.1 % IA/g | Biodistribution Spleen [2, 5]: 0.4 ± 0.0 % IA/g | Biodistribution Stomach [2, 5]: 0.5 ± 0.0 % IA/g | Biodistribution Adrenal ([2]; 4 hours p.i.): 0.5 ± 0.1 % I.A./g | Biodistribution Blood ([2]; 4 hours p.i.): 0.4 ± 0.1 % I.A./g | Biodistribution Heart ([2]; 4 hours p.i.): 0.2 ± 0.0 % I.A./g | Biodistribution Intestine ([2]; 4 hours p.i.): 0.3 ± 0.1 % I.A./g | Biodistribution Liver ([2]; 4 hours p.i.): 0.4 ± 0.0 % I.A./g | Biodistribution Lung ([2]; 4 hours p.i.): 0.3 ± 0.0 % I.A./g | Biodistribution Muscle ([2]; 4 hours p.i.): 0.4 ± 0.1 % I.A./g | Biodistribution Pancreas ([2]; 4 hours p.i.): 0.4 ± 0.1 % I.A./g | Biodistribution Spleen ([2]; 4 hours p.i.): 0.2 ± 0.0 % I.A./g | Biodistribution Stomach ([2]; 4 hours p.i.): 0.2 ± 0.0 % I.A./g | Biodistribution Adrenal [2, 6]: 0.5 ± 0.1 % IA/g | Biodistribution Blood [2, 6]: 0.4 ± 0.1 % IA/g | Biodistribution Femur [2, 6]: 1.2 ± 0.1 % IA/g | Biodistribution HT1080.hFAP (FAP-positive tumor) [2, 6]: 3.0 ± 0.8 % IA/g | Biodistribution HT1080.wt (FAP-negative tumor) [2, 6]: 0.6 ± 0.0 % IA/g | Biodistribution Heart [2, 6]: 0.2 ± 0.0 % IA/g | Biodistribution Intestine [2, 6]: 0.3 ± 0.1 % IA/g | Biodistribution Kidney [2, 6]: 1.1 ± 0.1 % IA/g | Biodistribution Liver [2, 6]: 0.4 ± 0.0 % IA/g | Biodistribution Lung [2, 6]: 0.3 ± 0.0 % IA/g | Biodistribution Muscle [2, 6]: 0.4 ± 0.1 % IA/g | Biodistribution Pancreas [2, 6]: 0.4 ± 0.1 % IA/g | Biodistribution Spleen [2, 6]: 0.2 ± 0.0 % IA/g | Biodistribution Stomach [2, 6]: 0.2 ± 0.0 % IA/g | Biodistribution HT-1080.wt ([2]; 1 hour p.i.): 1.7 ± 0.2 % I.A./g | Biodistribution HT-1080.wt ([2]; 4 hours p.i.): 0.6 ± 0.0 % I.A./g | Biodistribution HT-1080.hFAP ([2]; 1 hour p.i.): 7.4 ± 1.6 % I.A./g | Biodistribution HT-1080.hFAP ([2]; 4 hours p.i.): 3.0 ± 0.8 % I.A./g | retention in the body (remaining PET activity) [4]: lowest value
Compound: CN(C(=O)CCC(=O)N1CCN(C(=O)CC[C@H](C(=O)O)N2CCN3CCN(CC2)CC(=O)[O][61Cu][O]C(=O)C3)CC1)c1ccc2nccc(C(=O)NCC(=O)N3CC(F)(F)C[C@H]3C#N)c2c1 [[^61Cu]Cu-NODAGA-F4]
accumulation in tumor and target-positive tissues [2, 7]: high accumulation in FAP-positive (HT-1080.hFAP) tumor and murine-FAP-positive tissues | Cell surface fraction [3, 8]: 1.0 ± 0.7 % of the applied activity | Cell surface fraction [3, 9]: 0.9 ± 0.6 % of the applied activity | Cell surface fraction ([3]; Time Point 15 min, 0.2 nM): 1.0 ± 0.7 percentage of the total applied activity | Cell surface fraction ([3]; Time Point 240 min, 0.2 nM): 0.9 ± 0.6 percentage of the total applied activity
